What was measured:
Homo sapiens = organism: Homo sapiens; assay: Selectivity index, ratio of inhibition of human 17beta-HSD1 expressed in HEK293 cell lysates to inhibition of human 17beta-HSD2 expressed in HEK293 cell lysates
[1] = molecular target: T1, 17-beta-hydroxysteroid dehydrogenase type 1 (Homo sapiens, UniProt P14061); assay: Inhibition of human 17beta-HSD1 expressed in HEK293 cell lysates incubated for 10 mins using [2,4,6,7-3H]-estrone and NADPH by scintillation counting method
T1 sequence (P14061 whole entry): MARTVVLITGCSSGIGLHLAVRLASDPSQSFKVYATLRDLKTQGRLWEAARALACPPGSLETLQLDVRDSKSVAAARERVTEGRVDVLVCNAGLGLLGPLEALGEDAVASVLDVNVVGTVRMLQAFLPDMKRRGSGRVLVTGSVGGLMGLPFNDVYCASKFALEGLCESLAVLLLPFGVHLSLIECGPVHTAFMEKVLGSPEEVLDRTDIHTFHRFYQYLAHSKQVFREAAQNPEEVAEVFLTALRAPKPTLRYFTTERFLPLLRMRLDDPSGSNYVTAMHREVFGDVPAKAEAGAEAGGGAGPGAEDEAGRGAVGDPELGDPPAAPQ

Aromatase = molecular target: T2, Aromatase (Homo sapiens, UniProt P11511); assay: Inhibition of aromatase (unknown origin)
T2 sequence (P11511 whole entry): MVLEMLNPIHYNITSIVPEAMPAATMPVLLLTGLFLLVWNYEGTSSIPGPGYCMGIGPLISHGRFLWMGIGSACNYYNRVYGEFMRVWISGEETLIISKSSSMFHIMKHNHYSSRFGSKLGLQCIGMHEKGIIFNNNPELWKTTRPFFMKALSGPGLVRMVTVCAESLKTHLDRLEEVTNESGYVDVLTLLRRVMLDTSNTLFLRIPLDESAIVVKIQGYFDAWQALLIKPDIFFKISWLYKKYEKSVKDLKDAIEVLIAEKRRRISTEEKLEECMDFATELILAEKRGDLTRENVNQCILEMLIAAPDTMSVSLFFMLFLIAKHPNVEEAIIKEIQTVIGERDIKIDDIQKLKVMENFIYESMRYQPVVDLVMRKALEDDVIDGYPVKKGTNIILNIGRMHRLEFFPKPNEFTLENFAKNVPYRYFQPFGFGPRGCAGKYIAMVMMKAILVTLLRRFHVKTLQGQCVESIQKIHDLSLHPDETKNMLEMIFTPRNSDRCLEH

Estrogen receptor = molecular target: T3, Estrogen receptor (Homo sapiens, UniProt P03372); assay: Displacement of estradiol from human ERalpha expressed in yeast cells; assay type: cell-based
T3 sequence (P03372 whole entry): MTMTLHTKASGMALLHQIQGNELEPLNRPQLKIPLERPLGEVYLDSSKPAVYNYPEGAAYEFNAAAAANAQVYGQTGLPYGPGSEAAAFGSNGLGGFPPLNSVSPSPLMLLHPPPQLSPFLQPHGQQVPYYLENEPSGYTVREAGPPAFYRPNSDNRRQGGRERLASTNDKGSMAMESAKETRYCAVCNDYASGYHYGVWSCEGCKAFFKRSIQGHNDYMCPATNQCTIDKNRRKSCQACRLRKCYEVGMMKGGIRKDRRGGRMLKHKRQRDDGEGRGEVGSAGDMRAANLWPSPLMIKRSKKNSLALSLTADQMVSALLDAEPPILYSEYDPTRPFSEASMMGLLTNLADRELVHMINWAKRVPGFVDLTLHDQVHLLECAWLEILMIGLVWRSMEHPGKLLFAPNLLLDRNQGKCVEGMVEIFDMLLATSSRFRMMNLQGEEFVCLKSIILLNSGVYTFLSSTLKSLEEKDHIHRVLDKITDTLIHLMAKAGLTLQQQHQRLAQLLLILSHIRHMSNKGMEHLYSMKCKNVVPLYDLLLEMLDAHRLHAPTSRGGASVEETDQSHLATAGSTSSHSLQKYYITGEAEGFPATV

Estrogen receptor beta = Estrogen receptor beta (Homo sapiens, UniProt Q92731); assay: Displacement of estradiol from human ERbetaa expressed in yeast cells; assay type: cell-based
Estrogen receptor beta, sequence (Q92731 whole entry): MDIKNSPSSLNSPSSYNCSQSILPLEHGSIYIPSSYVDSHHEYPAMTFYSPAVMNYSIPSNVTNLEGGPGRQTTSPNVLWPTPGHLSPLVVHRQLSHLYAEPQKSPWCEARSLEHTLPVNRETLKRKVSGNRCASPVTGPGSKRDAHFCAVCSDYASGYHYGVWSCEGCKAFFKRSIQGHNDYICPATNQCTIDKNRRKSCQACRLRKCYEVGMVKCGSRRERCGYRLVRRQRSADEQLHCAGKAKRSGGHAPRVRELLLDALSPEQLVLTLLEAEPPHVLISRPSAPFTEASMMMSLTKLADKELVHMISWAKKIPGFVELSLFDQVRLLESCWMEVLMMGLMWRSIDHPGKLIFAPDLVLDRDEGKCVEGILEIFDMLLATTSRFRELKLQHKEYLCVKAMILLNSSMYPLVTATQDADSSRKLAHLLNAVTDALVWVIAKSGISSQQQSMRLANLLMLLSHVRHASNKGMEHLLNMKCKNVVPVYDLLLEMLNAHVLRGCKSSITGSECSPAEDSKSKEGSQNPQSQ

Question: How did the Selectivity Index (Homo sapiens) turn out when `O=C(Cc1ccc(O)c(Cl)c1)NCc1ccccc1Cl` was run?
Answer: 25

Question: For `CCOC(=O)c1ccc(O)c(OC)c1`, which IC50 [1] is on record?
Answer: Not Active

Question: How did the IC50 (Aromatase) turn out when `O=C(/C=C/c1ccc(O)cc1)c1ccc(O)cc1O` [ISOLIQUIRITIGENIN] was run?
Answer: 3800 nM

Question: And the IC50 (Estrogen receptor)?
Answer: 1870 nM

Question: What about the IC50 (Estrogen receptor beta) of the same compound?
Answer: 269 nM

Question: For `COc1cc(/C=C/C(=O)CC(=O)/C=C/c2ccc(O)c(OC)c2)ccc1O`, which Selectivity Index (Homo sapiens) is on record?
Answer: 12

Question: `O=C(/C=C/c1ccc(O)c(O)c1)O[C@H](Cc1ccc(O)c(O)c1)C(=O)O` [ROSMARINIC ACID] was tested. Which IC50 [1] did it give?
Answer: Not Active

Question: Which IC50 [1] does the source give for `O=C(Cc1ccc(O)c(Cl)c1)NCCc1ccccc1` here?
Answer: Not Active

Question: Which IC50 [1] does the source give for `O=C(Cc1ccc(O)c(Cl)c1)NCCc1c[nH]c2ccccc12` here?
Answer: Not Active

Question: With `O=C(Cc1ccc(O)c(Cl)c1)NCc1ccccc1` as the compound, how does the IC50 [1] read?
Answer: Not Active
